≈ marks a conversion by molar mass, not a printed value. Read-outs that look alike come from different tables or passages of the source.
Key:
E. coli MG1655 (MP100) = experiment: microbe, parasite or virus in culture; type: cell-based, Escherichia coli
Protocol: (§1) For MIC determination, single colonies were suspended in 0.9% saline buffer to a 0.5 McFarland standard and further diluted 1:100 in MH broth. Fifty microliters of the bacterial suspension was loaded onto in-house-designed and premade Sensititre microtiter plates (TREK Diagnostic Systems/Thermo Fisher Scientific, East Grinstead, United Kingdom). The plates were incubated for 20 h at 37°C. Antibiotic susceptibility testing was performed in duplicates.

[1] = test system: MP101 (MP100 transformed with p50579417_3_OXA-48); experiment: MIC determination, MP101 (MG1655 with native OXA-48 plasmid); type: cell-based, Escherichia coli
Excerpt: Mueller-Hinton (MH) agar and broth were purchased from Thermo Fisher Scientific (East Grinstead, United Kingdom). Luria-Bertani (LB) broth, LB agar, ampicillin, amoxicillin, cefepime, CAZ, imipenem, meropenem, piperacillin, and tazobactam were obtained from Sigma-Aldrich (St. Louis, MO). Nitrocefin was purchased from Merck (Darmstadt, Germany). The characteristics of the clinical E. coli strain 50579417 harboring the OXA-48 plasmid (p50579417_3_OXA-48) have been described previously ([61], [62]). The plasmid p50579417_3_OXA-48 was conjugated into rifampin-resistant E. coli TOP10 and subsequently isolated using a plasmid mini-purification kit (Qiagen, Germany). E. coli MG1655 (DA4201) was electroporated with p50579417_3_OXA-48 as published previously ([63]). Transformants positive for blaOXA-48 were checked by PCR using REDTaq ready mix (Sigma-Aldrich, St. Louis, MO) and preOXA-48 primers ([61]).
as §1

OXA-48:P68A [2] = biological target: T1, OXA-48:P68A (Klebsiella pneumoniae, UniProt Q6XEC0, P68A); experiment: Steady-state enzyme kinetics, OXA-48:P68A; type: biochemical; conditions: for Km / kcat: substrate hydrolysis, 25°C, pH 7.0, error = 95% CI
E. coli TOP10 = experiment: microbe, parasite or virus in culture; type: cell-based; conditions: Escherichia coli, Table 3, read-out: MIC
Protocol: as §1

[3] = test system: MP105 (E. coli TOP10 expressing OXA-48:P68A); experiment: microbe, parasite or virus in culture; type: cell-based; conditions: for MIC: Escherichia coli, Table 3, MP105, OXA-48:P68A in pCR-blunt II TOPO
[4] = test system: MP107 (MP100 transformed with p50579417_3_OXA-48-CAZ); experiment: MIC determination, MP107 (MG1655 with CAZ-adapted plasmid); type: cell-based; conditions: Escherichia coli; Table 6; MP107, adapted plasmid p50579417-OXA-48-CAZ
Protocol: as §1

[5] = test system: MP104 (E. coli TOP10 expressing native OXA-48); experiment: MIC determination, TOP10 expressing native OXA-48 (MP104); type: cell-based; conditions: Escherichia coli; Table 3; MP104, native OXA-48 in pCR-blunt II TOPO
Protocol: as §1
For a functional resistance profile, the native and mutated blaOXA-48 genes were cloned in the pCR-blunt II-TOPO vector (Invitrogen, CA) and expressed in E. coli TOP10 (Invitrogen, CA). The PCR product was obtained by Phusion High Fidelity PCR mastermix with High Fidelity buffer (New England Biolabs, MA) and preOXA-48 primers ([61]). Transformants were selected on LB agar plates containing 50 or 100 mg/liter ampicillin. Insertion size was verified by Sanger sequencing using M13 forward (5′-[…]-3′) and reverse (5′-[…]-3′) primers.

[6] = test system: MP108 (MP100 transformed with p50579417_3_OXA-48-CAZ-AVI); experiment: MIC determination, MP108 (MG1655 with CAZ-AVI-adapted plasmid); type: cell-based; conditions: Escherichia coli; Table 6; MP108, adapted plasmid p50579417-OXA-48-CAZ-AVI
Protocol: as §1

OXA-48:P68A [7] = biological target: T1, OXA-48:P68A; experiment: IC50 with nitrocefin as reporter substrate, OXA-48:P68A; type: biochemical; conditions: P68A compared to native OXA-48
[8] = test system: MP103 (MP101 subjected to CAZ-AVI); experiment: MIC determination, MP103 (MP101 selected on CAZ-AVI); type: cell-based, Escherichia coli
Protocol: (§2) Ten milliliters of an MP101 culture was grown in MH broth at 37°C overnight and then centrifuged for 10 min at 4,000 × g, and the pellet was suspended in 1 ml MH broth. One hundred microliters was plated on MH agar containing increasing concentrations of either CAZ alone or in combination with AVI up to 2 mg/liter. For CAZ-AVI, we utilized the clinical ratio of 4:1, respectively. Colonies growing on the highest concentration were recovered and grown in a fresh overnight culture (MH broth) and subsequently plated on concentrations of CAZ or CAZ-AVI up to 32 mg/liter.
as §1

[9] = test system: MP102 (MP101 subjected to CAZ); experiment: MIC determination, MP102 (MP101 selected on CAZ); type: cell-based, Escherichia coli
Protocol: as §2, §1

crystal structure = biological target: the molecule itself; experiment: crystal structure
[10] = Escherichia coli, MG1655, Table 6, MP100, read-out: MIC
[11] = Escherichia coli, Table 6, MP101, native plasmid, read-out: MIC

Question: For CO/N=C(\C(=O)N[C@@H]1C(=O)N2C(C(=O)[O-])=C(C[N+]3(C)CCCC3)CS[C@H]12)c1csc(N)n1 [FEP, cefepime], which MIC (E. coli MG1655 (MP100); [10]) is on record?
Answer: 0.06 µg/mL (≈ 0.125 µM)

Question: What about the MIC [1, 11] of the same molecule?
Answer: 0.25 µg/mL (≈ 0.52 µM)

Question: What about the Km (OXA-48:P68A [2]) of the same molecule?
Answer: 462 ± 126 µM

Question: What about the kcat (OXA-48:P68A [2]) of the same molecule?
Answer: 0.5 ± 0.1 s⁻¹

Question: What about the MIC (E. coli TOP10) of the same molecule?
Answer: 0.06 µg/mL (≈ 0.125 µM)

Question: And the MIC [3]?
Answer: 0.25 µg/mL (≈ 0.52 µM)

Question: What about the MIC [4] of the same molecule?
Answer: 0.5 µg/mL (≈ 1.04 µM)

Question: And the MIC [5]?
Answer: 0.12 µg/mL (≈ 0.25 µM)

Question: What about the MIC [6] of the same molecule?
Answer: 0.25 µg/mL (≈ 0.52 µM)

Question: Which “change in the inhibitory activity” value (OXA-48:P68A [7]) does the source give for NC(=O)[C@@H]1CC[C@@H]2CN1C(=O)N2OS(=O)(=O)O [Avibactam, avibactam] here?
Answer: no change

Question: Which results are given for CO[C@@]1(NC(=O)C(C(=O)O)c2ccsc2)C(=O)N2[C@@H](C(=O)O)C(C)(C)S[C@@H]21 (some centres unmarked) [TRM, temocillin]?
Answer: MIC (E. coli MG1655 (MP100); [10]): 8 µg/mL (≈ 19.3 µM); MIC [1, 11]: 256 µg/mL (≈ 618 µM); MIC (E. coli TOP10): 16 µg/mL (≈ 38.6 µM); MIC [3]: 64 µg/mL (≈ 154 µM); MIC [4]: 128 µg/mL (≈ 309 µM); MIC [5]: 256 µg/mL (≈ 618 µM); MIC [6]: 32 µg/mL (≈ 77.2 µM)

Question: What does the source list for CO/N=C(\C(=O)N[C@@H]1C(=O)N2C(C(=O)O)=C(COC(C)=O)CS[C@H]12)c1csc(N)n1 [FOT, cefotaxime]?
Answer: MIC (E. coli MG1655 (MP100); [10]): 0.12 µg/mL (≈ 0.263 µM); MIC [1, 11]: 0.5 µg/mL (≈ 1.1 µM); MIC (E. coli TOP10): 0.12 µg/mL (≈ 0.263 µM); MIC [3]: 0.25 µg/mL (≈ 0.549 µM); MIC [4]: 1 µg/mL (≈ 2.2 µM); MIC [5]: 0.25 µg/mL (≈ 0.549 µM); MIC [6]: 0.25 µg/mL (≈ 0.549 µM)

Question: For CC(C)(O/N=C(\C(=O)N[C@@H]1C(=O)N2C(C(=O)[O-])=C(C[n+]3ccccc3)CS[C@H]12)c1csc(N)n1)C(=O)O [CAZ, ceftazidime], which MIC ([8]; Escherichia coli, Table 2, strain MP103, after two-step CAZ-AVI selection) is on record?
Answer: 32 µg/mL

Question: And the “MIC increase after CAZ-AVI selection” value ([8]; MP103 versus MP101)?
Answer: 128 fold

Question: And the MIC ([9]; Escherichia coli, Table 2, strain MP102, after two-step CAZ selection)?
Answer: 32 µg/mL

Question: What about the “MIC increase after CAZ selection” value ([9]; MP102 versus MP101) of the same molecule?
Answer: 128 fold

Question: What about the MIC (E. coli MG1655 (MP100); Escherichia coli, MG1655, Table 2, strain MP100, duplicates, read-out: MIC) of the same molecule?
Answer: 0.25 µg/mL (≈ 0.457 µM)

Question: And the MIC (E. coli MG1655 (MP100); Table 6, MP100)?
Answer: 0.25 µg/mL (≈ 0.457 µM)

Question: What about the MIC ([1]; Escherichia coli, Table 2, strain MP101, duplicates, read-out: MIC) of the same molecule?
Answer: 0.25 µg/mL (≈ 0.457 µM)

Question: And the MIC ([1]; Table 6, MP101, native plasmid)?
Answer: 0.25 µg/mL (≈ 0.457 µM)

Question: And the “increased catalytic efficiency (kcat/Km)” value (OXA-48:P68A [2]; P68A compared to native OXA-48)?
Answer: > 10 fold

Question: What about the Km (OXA-48:P68A [2]) of the same molecule?
Answer: 220 ± 50 µM

Question: What about the kcat (OXA-48:P68A [2]) of the same molecule?
Answer: 26 ± 3 s⁻¹

Question: What about the MIC (E. coli TOP10) of the same molecule?
Answer: 1 µg/mL (≈ 1.83 µM)

Question: And the MIC [3]?
Answer: 16 µg/mL (≈ 29.3 µM)

Question: And the “MIC increase by P68A substitution” value ([3]; MP105 versus native OXA-48 (MP104))?
Answer: 32 fold

Question: And the MIC [4]?
Answer: 16 µg/mL (≈ 29.3 µM)

Question: What about the MIC [5] of the same molecule?
Answer: 0.5 µg/mL (≈ 0.915 µM)

Question: And the MIC [6]?
Answer: 32 µg/mL (≈ 58.5 µM)

Question: What does the source list for O=C(Cc1cccs1)N[C@@H]1C(=O)N2C(C(=O)O)=C(/C=C/c3ccc([N+](=O)[O-])cc3[N+](=O)[O-])CS[C@H]12 [NIT, nitrocefin]?
Answer: kcat (OXA-48:P68A [2]): 37 ± 2 s⁻¹; Km (OXA-48:P68A [2]; read-out: Km): 53 ± 8 µM

Question: Which results are given for C[C@@H](O)[C@H]1C(=O)N2C(C(=O)O)=C(S[C@@H]3CN[C@H](C(=O)N(C)C)C3)[C@H](C)[C@H]12 [MEM, meropenem]?
Answer: MIC (E. coli MG1655 (MP100); [10]): 0.03 µg/mL (≈ 0.0782 µM); MIC [1, 11]: 0.25 µg/mL (≈ 0.652 µM); Km (OXA-48:P68A [2]): 3 ± 1 µM; kcat (OXA-48:P68A [2]): (8 ± 0.8) × 10^−4 s^−1; MIC (E. coli TOP10): 0.03 µg/mL (≈ 0.0782 µM); MIC [3]: 0.03 µg/mL (≈ 0.0782 µM); MIC [4]: 0.06 µg/mL (≈ 0.156 µM); MIC [5]: 0.25 µg/mL (≈ 0.652 µM); MIC [6]: 0.06 µg/mL (≈ 0.156 µM)

B1: OXA-48:P68A (enzyme)
chain: KEWQENKSWNAHFTEHKSQGVVVLWNENKQQGFTNNLKRANQAFLAASTFKIPNSLIALDLGVVKDEHQVFKWDGQTRDIATWNRDHNLITAMKYSVVPVYQEFARQIGEARMSKMLHAFDYGNEDISGNVDSFWLDGGIRISATEQISFLRKLYHNKLHVSERSQRIVKQAMLTEANGDYIIRAKTGYSTRIEPKIGWWVGWVELDDNVWFFAMNMDMPTSDGLGLRQAITKEVLKQEKIIP
notes: also called OXA-48:P68A-CAZ; OXA-48:P68A-AVI; source: E. coli Rosetta 2(DE3)/pLysS, purified (>95% purity)
Question: Does B1 bind (crystal structure)?
Answer: binds
